Data taken from patent US20130197009A1, “ANTAGONIST FOR MUTANT ANDROGEN RECEPTOR” (ASTELLAS PHARMA INC., priority 2010, published 2013).
Residue numbers refer to the chain shown, from its start.

Legend:
[1] = target: T1, wild type AR (Wild) (Homo sapiens, UniProt P10275); assay: Inhibitory action against transcriptional activation of AR (luciferase reporter, CHO-K1 cells, DHT 0.3 nM)
T1 sequence (P10275 1-920): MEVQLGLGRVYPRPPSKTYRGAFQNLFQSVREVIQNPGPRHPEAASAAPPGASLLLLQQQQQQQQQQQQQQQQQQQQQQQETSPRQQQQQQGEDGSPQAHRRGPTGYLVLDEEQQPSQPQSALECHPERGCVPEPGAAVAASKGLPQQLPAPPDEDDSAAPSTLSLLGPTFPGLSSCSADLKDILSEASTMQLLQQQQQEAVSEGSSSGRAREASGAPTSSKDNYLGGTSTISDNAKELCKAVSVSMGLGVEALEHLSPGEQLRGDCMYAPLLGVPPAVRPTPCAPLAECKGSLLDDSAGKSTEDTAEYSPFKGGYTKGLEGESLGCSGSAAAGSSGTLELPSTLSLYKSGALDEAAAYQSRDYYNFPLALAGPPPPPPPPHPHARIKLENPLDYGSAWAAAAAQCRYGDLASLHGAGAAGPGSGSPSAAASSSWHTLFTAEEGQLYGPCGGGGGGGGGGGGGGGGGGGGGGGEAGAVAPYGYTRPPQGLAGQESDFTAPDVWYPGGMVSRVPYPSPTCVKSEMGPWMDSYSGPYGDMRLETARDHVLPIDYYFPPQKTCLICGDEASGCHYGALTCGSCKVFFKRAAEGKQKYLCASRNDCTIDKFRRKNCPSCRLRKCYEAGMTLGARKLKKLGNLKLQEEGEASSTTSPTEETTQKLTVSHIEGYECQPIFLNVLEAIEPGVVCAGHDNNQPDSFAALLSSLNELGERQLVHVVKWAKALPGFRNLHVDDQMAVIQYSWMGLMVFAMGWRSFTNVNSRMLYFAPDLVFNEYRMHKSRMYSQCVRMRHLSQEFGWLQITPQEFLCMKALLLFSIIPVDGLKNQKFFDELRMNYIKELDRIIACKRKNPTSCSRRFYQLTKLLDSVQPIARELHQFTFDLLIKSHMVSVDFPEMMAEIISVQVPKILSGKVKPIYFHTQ

[2] = target: T2, human T877A mutant AR (Homo sapiens, UniProt P10275, T878A); assay: Inhibitory action against transcriptional activation of mutant AR (luciferase reporter, CHO-K1 cells, DHT 0.3 nM); type: cell-based; conditions: CHO-K1 cells stably expressing T877A mutant AR, with DHT 0.3 nM, >1000 nM means no inhibitory action observed, read-out: IC50, inhibition of transcriptional activation, T877A
T2 construct: expressed in transfected cells; host or cells: CHO-K1
T2 sequence (P10275 1-920 T878A): T1 sequence (P10275 1-920) with T878A
Experimental: Subsequently, the cells were incubated overnight again at 37° C. and then treated with a luciferase assay system.
An IC50 value was calculated by Sigmoid-Emax model nonlinear regression analysis.
The inhibitory action of the respective test compounds against the receptor was calculated as an IC50 value, and the values are described in the following table. In addition, “-” means that the test was not performed.

Row | Structure (SMILES) | IC50 [1] [µM] | IC50 [2] [µM]
1 | COc1cc(N2C[C@@H](C)N(C(=O)Nc3cc(C)nc(C)n3)C[C@@H]2C)ccc1C#N [Ex 7, (2R,5S)-4-(4-cyano-3-methoxyphenyl)-N-(2,6-dimethylpyrimidin-4-yl)-2,5-dimethylpiperazine-1-carboxamide] | 0.076 | –
2 | C[C@@H]1CN(c2ccc(C#N)c(Cl)c2)[C@@H](C)CN1C(=O)Nc1cnc(N2CCCCC2)nc1 [Ex 8, (2R,5S)-4-(3-chloro-4-cyanophenyl)-2,5-dimethyl-N-[2-(piperidin-1-yl)pyrimidin-5-yl]piperazine-1-carboxamide] | 0.017 | –
3 | COc1ncc(NC(=O)N2C[C@H](C)N(c3ccc(C#N)c(Br)c3)C[C@H]2C)cn1 [Ex 11, (2R,5S)-4-(3-bromo-4-cyanophenyl)-N-(2-methoxypyrimidin-5-yl)-2,5-dimethylpiperazine-1-carboxamide] | 0.026 | 0.023
4 | Cc1cc(NC(=O)N2C[C@H](C)N(c3ccc(C#N)c(Cl)c3)C[C@H]2C)cc(Cl)n1 [Ex 16, (2R,5S)-4-(3-chloro-4-cyanophenyl)-N-(2-chloro-6-methylpyridin-4-yl)-2,5-dimethylpiperazine-1-carboxamide] | 0.045 | 0.024
5 | COc1cc(NC(=O)N2C[C@H](C)N(c3ccc(C#N)c(Cl)c3)C[C@H]2C)cc(C)n1 [Ex 18, (2R,5S)-4-(3-chloro-4-cyanophenyl)-N-(2-methoxy-6-methylpyridin-4-yl)-2,5-dimethylpiperazine-1-carboxamide] | 0.01 | 0.015
6 | COc1cc(NC(=O)N2C[C@H](C)N(c3ccc(C#N)c(Br)c3)C[C@H]2C)cc(C)n1 [Ex 19, (2R,5S)-4-(3-bromo-4-cyanophenyl)-N-(2-methoxy-6-methylpyridin-4-yl)-2,5-dimethylpiperazine-1-carboxamide] | 0.011 | 0.019
7 | CC(C)Oc1cc(N2C[C@@H](C)N(C(=O)Nc3cnc(C4CC4)nc3)C[C@@H]2C)ccc1C#N [Ref 1-1, reference compound] | 0.14 | 0.35
8 | COc1cc(N2C[C@@H](C)N(C(=O)Nc3nc(C)cc(O)n3)C[C@@H]2C)ccc1C#N [Ref 1-2, reference compound] | 0.058 | 0.089
9 | C[C@@H]1CN(c2ccc(C#N)c(Cl)c2)[C@@H](C)CN1C(=O)Nc1cnc2ccccc2n1 [Ref 1-3, (2R,5S)-4-(3-chloro-4-cyanophenyl)-2,5-dimethyl-N-(quinoxalin-2-yl)piperazine-1-carboxamide, reference compound] | 0.051 | 0.68
